Laboratory results reported in PubChem BioAssay AID248 (DTP/NCI, 2004).
“And” between values parts separate entries of the source, which are not always exact repeats. Equal entries are not always repeated. Toxic doses and inconclusive results are not listed. Rule as the data show it: active = T/C of 150% or more; inactive = T/C below 125%.

Tested on: L1210 leukemia ip in BDF1 mice, survival T/C
Assay: NCI In Vivo Anticancer Drug Screen. Data for tumor model L1210 Leukemia (intraperitoneal) in B6D2F1 (BDF1) mice
Details: endpoint: mean survival time, higher = longer survival
How it was run: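 Tumor cells were implanted, animals were treated, and survival was followed. The result divides the treated measurement by the vehicle-control measurement.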

[1] = dose: 100.0 mg/kg/injection, schedule: Q01DX009 (ip), vehicle: saline with Tween-80
[2] = dose: 100.0 mg/kg/injection, schedule: Q04DX003 (ip), vehicle: saline with Tween-80
[3] = dose: 200.0 mg/kg/injection, schedule: Q01DX009 (ip), vehicle: saline with Tween-80
[4] = dose: 200.0 mg/kg/injection, schedule: Q04DX003 (ip), vehicle: saline with Tween-80
[5] = dose: 400.0 mg/kg/injection, schedule: Q01DX009 (ip), vehicle: saline with Tween-80
[6] = dose: 400.0 mg/kg/injection, schedule: Q04DX003 (ip), vehicle: saline with Tween-80
[7] = dose: 100.0 mg/kg/injection, schedule: Q04DX003 (ip), vehicle: Klucel (hydroxypropylcellulose) (HPC)
[8] = dose: 200.0 mg/kg/injection, schedule: Q04DX003 (ip), vehicle: Klucel (hydroxypropylcellulose) (HPC)
[9] = dose: 100.0 mg/kg/injection, schedule: Q01DX001 (ip), vehicle: saline
[10] = dose: 100.0 mg/kg/injection, schedule: Q04DX003 (ip), vehicle: saline
[11] = dose: 25.0 mg/kg/injection, schedule: Q01DX001 (ip), vehicle: saline
[12] = dose: 100.0 mg/kg/injection, schedule: Q04DX002 (ip), vehicle: saline with Tween-80
[13] = dose: 200.0 mg/kg/injection, schedule: Q04DX002 (ip), vehicle: saline with Tween-80
[14] = dose: 400.0 mg/kg/injection, schedule: Q04DX002 (ip), vehicle: saline with Tween-80

Measured: T/C

CN1CCCCC1CCN1c2ccccc2Sc2ccc(Br)cc21 (stereo unspecified)
inactive: dose: 3.12 mg/kg/injection, schedule: Q01DX009 (ip), vehicle: saline 105 % of control | dose: 6.25 mg/kg/injection, schedule: Q01DX009 (ip), vehicle: saline 100 % of control | dose: 12.5 mg/kg/injection, schedule: Q01DX009 (ip), vehicle: saline 101 % of control

O=C(NC(Cc1ccccc1)C(=O)O)c1ccccc1 (stereo unspecified)
inactive: [1] 91 % of control | [2] 94 % of control and 92 % of control | [3] 95 % of control | [4] 96 % of control and 95 % of control | [5] 90 % of control | [6] 97 % of control and 90 % of control

O=C(CC(=O)c1cccc([N+](=O)[O-])c1)Nc1ccccc1Br
inactive: [7] 94 % of control | [8] 91 % of control | dose: 400.0 mg/kg/injection, schedule: Q04DX003 (ip), vehicle: Klucel (hydroxypropylcellulose) (HPC) 94 % of control

CC(=O)c1ccc(N=C=O)cc1
inactive: dose: 400.0 mg/kg/injection, schedule: Q01DX001 (ip), vehicle: saline with Tween-80 95 % of control

CCCCCc1cc[n+](CC(=O)c2ccccc2)cc1
inactive: dose: 25.0 mg/kg/injection, schedule: Q04DX003 (ip), vehicle: saline 100 % of control | [9] 93 % of control | [10] 87 % of control

CC(Oc1cc(Cl)ccc1Cl)C(=O)O (stereo unspecified)
inactive: dose: 50.0 mg/kg/injection, schedule: Q04DX003 (ip), vehicle: Klucel (hydroxypropylcellulose) (HPC) 114 % of control | dose: 100.0 mg/kg/injection, schedule: Q01DX009 (ip), vehicle: Klucel (hydroxypropylcellulose) (HPC) 110 % of control | [7] 105 % of control | dose: 200.0 mg/kg/injection, schedule: Q01DX009 (ip), vehicle: Klucel (hydroxypropylcellulose) (HPC) 114 % of control | [8] 104 % of control | dose: 400.0 mg/kg/injection, schedule: Q01DX009 (ip), vehicle: Klucel (hydroxypropylcellulose) (HPC) 108 % of control

NCc1ccc(F)cc1
inactive: dose: 50.0 mg/kg/injection, schedule: Q01DX009 (ip), vehicle: saline 102 % of control | dose: 100.0 mg/kg/injection, schedule: Q01DX009 (ip), vehicle: saline 95 % of control | [10] 100 % of control | dose: 200.0 mg/kg/injection, schedule: Q01DX009 (ip), vehicle: saline 95 % of control | dose: 200.0 mg/kg/injection, schedule: Q04DX003 (ip), vehicle: saline 92 % of control

O=C1NC(=S)N/C1=C\c1ccco1
inactive: [11] 100 % of control | dose: 50.0 mg/kg/injection, schedule: Q01DX001 (ip), vehicle: saline 100 % of control | [9] 98 % of control and 100 % of control

CCCN(CCC)N=Nc1ccccc1C(N)=O
inactive: dose: 100.0 mg/kg/injection, schedule: Q01DX001 (ip), vehicle: other 107 % of control | [1] 90 % of control | [2] 104 % of control | dose: 200.0 mg/kg/injection, schedule: Q01DX001 (ip), vehicle: other 102 % of control | [3] 102 % of control | [4] 94 % of control | dose: 400.0 mg/kg/injection, schedule: Q01DX001 (ip), vehicle: other 103 % of control | [6] 98 % of control

O=C(NCCCCCCCCCNC(=O)Nc1ccc(C2=NCCCN2)cc1)Nc1ccc(C2=NCCCN2)cc1
inactive: dose: 3.75 mg/kg/injection, schedule: Q01DX Z (ip), vehicle: carboxymethylcellulose (CMC) 91 % of control | dose: 7.5 mg/kg/injection, schedule: Q01DX Z (ip), vehicle: carboxymethylcellulose (CMC) 98 % of control | dose: 15.0 mg/kg/injection, schedule: Q01DX Z (ip), vehicle: carboxymethylcellulose (CMC) 122 % of control

CCOC(=O)C(=CNc1ccc(OC)cc1[N+](=O)[O-])C(=O)OCC
inactive: dose: 12.5 mg/kg/injection, schedule: Q01DX009 (ip), vehicle: saline with Tween-80 97 % of control | dose: 25.0 mg/kg/injection, schedule: Q01DX009 (ip), vehicle: saline with Tween-80 90 % of control | [1] 94 % of control and 90 % of control | [12] 95 % of control | [3] 105 % of control | [13] 88 % of control | [14] 92 % of control

O=C(Nc1cccc(Cl)c1)Nc1cccc(C(F)(F)F)c1
inactive: dose: 15.0 mg/kg/injection, schedule: Q01DX015 (ip), vehicle: carboxymethylcellulose (CMC) 103 % of control | dose: 30.0 mg/kg/injection, schedule: Q01DX015 (ip), vehicle: carboxymethylcellulose (CMC) 103 % of control | dose: 60.0 mg/kg/injection, schedule: Q01DX015 (ip), vehicle: carboxymethylcellulose (CMC) 100 % of control | dose: 120.0 mg/kg/injection, schedule: Q01DX015 (ip), vehicle: carboxymethylcellulose (CMC) 103 % of control

CCCCCCCCCCC(=O)NC1CCC(CC2CCCCC2)CC1 (stereo unspecified)
inactive: dose: 100.0 mg/kg/injection, schedule: Q04DX003 (ip), vehicle: other 101 % of control | dose: 200.0 mg/kg/injection, schedule: Q04DX003 (ip), vehicle: other 103 % of control | dose: 400.0 mg/kg/injection, schedule: Q04DX003 (ip), vehicle: other 101 % of control

CCCCCC1CCC(C(=O)O)CC1 (stereo unspecified)
inactive: [2] 88 % of control | [4] 93 % of control

O=C(O)c1ccccc1/C=C/c1ccccc1
inactive: [1] 96 % of control | [2] 104 % of control | [3] 100 % of control | [4] 101 % of control | [5] 96 % of control | [6] 101 % of control

c1cc[c]([Sn]([S]c2nc3ccccc3s2)([c]2ccccc2)[c]2ccccc2)cc1
inactive: dose: 5.0 mg/kg/injection, schedule: Q04DX002 (ip), vehicle: saline with Tween-80 104 % of control | dose: 10.0 mg/kg/injection, schedule: Q04DX002 (ip), vehicle: saline with Tween-80 97 % of control | dose: 20.0 mg/kg/injection, schedule: Q04DX002 (ip), vehicle: saline with Tween-80 97 % of control

CN1CC2([N+](=O)[O-])C=CCC([N+](=O)[O-])(C1)C2 (stereo unspecified)
inactive: dose: 25.0 mg/kg/injection, schedule: Q01DX009 (ip), vehicle: water 98 % of control | dose: 50.0 mg/kg/injection, schedule: Q01DX009 (ip), vehicle: water 102 % of control | dose: 100.0 mg/kg/injection, schedule: Q01DX009 (ip), vehicle: water 104 % of control | dose: 200.0 mg/kg/injection, schedule: Q01DX009 (ip), vehicle: water 103 % of control

CC(C)CC(C=O)(CCN1CCCCC1)c1cccc2ccccc12 (stereo unspecified)
inactive: [12] 87 % of control and 88 % of control | dose: 100.0 mg/kg/injection, schedule: Q04DX002 (ip), vehicle: saline 98 % of control | [13] 94 % of control and 91 % of control | dose: 200.0 mg/kg/injection, schedule: Q04DX002 (ip), vehicle: saline 91 % of control | [14] 91 % of control

CN(C)C=Nc1cc2c3c(c1)CCCN3CCC2
inactive: dose: 12.5 mg/kg/injection, schedule: Q01DX001 (ip), vehicle: saline 103 % of control | [11] 105 % of control

O=C=Nc1cccc(S(=O)(=O)F)c1
inactive: dose: 50.0 mg/kg/injection, schedule: Q01DX001 (ip), vehicle: carboxymethylcellulose (CMC) 105 % of control | dose: 100.0 mg/kg/injection, schedule: Q01DX001 (ip), vehicle: carboxymethylcellulose (CMC) 103 % of control | dose: 200.0 mg/kg/injection, schedule: Q01DX001 (ip), vehicle: carboxymethylcellulose (CMC) 105 % of control | dose: 400.0 mg/kg/injection, schedule: Q01DX001 (ip), vehicle: carboxymethylcellulose (CMC) 97 % of control
